{"source": "patent US20240350430A1", "about": "“GROWTH INHIBITOR OF METASTATIC HUMAN PROSTATE CANCER CELLS” (Watanabe Oyster Laboratory Co., Ltd., priority 2021, published 2024)", "assay_type_in_all_cases": "cell-based, human", "key": {"PC-3 cells [1]": {"system": "PC-3 cells", "assay": "Cell growth of PC-3 cells (cell counting)", "conditions": "three days; for cell growth in the presence of cell cycle inhibitor alone: roscovitine 10 or 100 nM, butyrate 10 or 100 μM, sulforaphane 1 or 10 nM", "experimental": "(§1) The PC-3 and DU-145 cells (the cell number of 1×10^5/in 1 ml of a culture fluid per hole using a 24-hole plate) were cultured in a DMEM culture fluid (containing 10% of FBS, 1% of P/S, and 1% of fungizone) containing the DHMBA (1 and 10 μM) under 5% of CO2, at 37° C., for one, two, three, four, and six days. […] After the culture, 0.1 ml of 0.05% trypsin-EDTA solution obtained by dissolving the cells adhering to the bottom surface of the culture dish in PBS (Thermo Fisher Scientific, Waltham, MA, USA) not containing Ca^2+/Mg^2+ was added, incubation was performed at 37° C. for two minutes to release the adhering cells, and 0.9 ml of the DMEM culture fluid containing 10% of FBS and 1% of P/S was added to stop the reaction. The cell number in the cell suspension was counted by the method described in the item of “Measurement of Cell Number.”\n(§2) After the culture of the cells, 0.1 ml of 0.05% trypsin-EDTA solution obtained by dissolving the cells adhering to the bottom surface of the culture dish in PBS (Thermo Fisher Scientific, Waltham, MA, USA) not containing Ca^2+/Mg^2+ was added, incubation was performed at 37° C. for two minutes to release the adhering cells, and 0.9 ml of the DMEM culture fluid containing 10% of FBS and 1% of P/S was added to stop the reaction. The visible cells were counted by the Olympus MTV-3 microscope using a hemocytometer (Sigma-Aldrich).\nFIG. 1(C) is a diagram in which the PC-3 cells (1×10^5 cells/per well of a 24-well plate) were cultured under 5% of CO2, at 37° C., for one to six days in a DMEM culture fluid (containing 10% of FBS, 1% of P/S, and 1% of fungizone) containing the DHMBA (10 μM).\n(§3) In FIGS. 1(D) and 1(E), the PC-3 cells (1×10^5 cells/per well of a 24-well plate) were cultured under 5% of CO2, at 37° C., for three (FIG. 1D) and six (FIG. 1E) days in a DMEM culture fluid (containing 10% of FBS, 1% of P/S, and 1% of fungizone) containing the DHMBA (0.01, 0.1, 1, 10, 100, and 1000 μM). After the culture, the cells adhered to the bottom surface of the dish were removed and counted. […] 1-way ANOVA, Tukey-Kramer post-test.\nFIGS. 3(A) and 3(B) are diagrams in which the PC-3 cells (1×10^5 cells/ml/per well of a 24-well plate) were cultured under 5% of CO2, at 37° C., for three days in a DMEM culture fluid (containing 10% of FBS, 1% of P/S, and 1% of fungizone) containing the DHMBA (10 μM) containing cell cycle inhibitors, roscovitine (10 and 100 nM), butyrate (10 and 100 μM), and sulforaphane (1 and 10 nM).\nAfter the culture, the cells adhered to the dish were removed and counted. […] 1-way ANOVA, Tukey-Kramer post-test.\nIn the drawing, the PC-3 cells (1×10^5/in 1 ml of a culture fluid per hole using a 24-hole plate) were cultured under 5% of CO2, at 37° C., for three days in a DMEM culture fluid (containing 10% of FBS, 1% of P/S, and 1% of fungizone) in the presence of the DHMBA (10 μM) and an aryl hydrocarbon receptor inhibitor CH223191 (1, 10, or 25 μM) to examine the action on cell growth."}, "PC-3 cells [2]": {"system": "PC-3 cells", "assay": "Cell death of sub-confluent PC-3 cells (adherent cell counting)", "experimental": "The PC-3 and DU-145 cells (1×10^5/in 1 ml of a culture fluid per hole using a 24-hole plate) were cultured in a DMEM culture fluid (containing 10% of FBS, 1% of P/S, and 1% of fungizone) under 5% of CO2, at 37° C., for three days, and when the cells reached sub-confluence, the culture fluid was exchanged for the one containing the DHMBA (0.01, 0.1, 1, 10, 100, or 1000 μM), and the cells were cultured for 24 and 48 hours. After the culture, the cells adhering to the bottom surface of the dish were removed and counted. In another experiment, after the culture for three days, when the cells reached sub-confluence, the culture fluid was exchanged for a culture fluid containing the DHMBA (1 or 10 μM) and a caspase-3 inhibitor (10 μM), and the cells were counted after the culture for 48 hours. Further, after the culture for three days, when the cells reached sub-confluence, the culture fluid was exchanged for a culture fluid obtained by adding gemcitabine (0.1, 1, 10, 50 or 100 nM) or CH223191 (1, 10, and 25 μM) to a DMEM culture fluid containing the DHMBA (1 or 10 μM) or not containing the DHMBA, and the cells were counted after the culture for 48 hours.\nas §2\n(§4) In the drawing, the PC-3 (FIGS. 5(A) and 5(B)) and DU-145 (FIGS. 5(D) and 5(E)) cells (1×10^5/in 1 ml of a culture fluid per hole using a 24-hole plate) were cultured under 5% of CO2, at 37° C., for three days in a DMEM culture fluid (containing 10% of FBS, 1% of P/S, and 1% of fungizone), and when the cells reached sub-confluence, the culture fluid was exchanged for the one containing the DHMBA (0.01, 0.1, 1, 10, 100, or 1000 μM), and the cells were cultured for 24 and 48 hours. In the drawing, after the culture, the cells adhering to the dish were counted.\nIn another experiment, after the culture for three days, when the cells reached sub-confluence, for the PC-3 (FIG. 5(C)) or DU-145 (FIG. 5(F)) cells, the culture fluid was exchanged for a culture fluid containing the DHMBA (1 or 10 μM) and a caspase-3 inhibitor (10 μM), and the cells were counted after the culture for 48 hours. Further, after the culture for three days, when the cells reached sub-confluence, the culture fluid was exchanged for a culture fluid obtained by adding gemcitabine (0.1, 1, 10, 50 or 100 nM) or CH223191 (1, 10, and 25 μM) to a DMEM culture fluid containing the DHMBA (1 or 10 μM) or not containing the DHMBA, and the cells were counted after the culture for 48 hours. After the culture, the cells adhered to the dish were removed and counted. Each piece of data is shown with a mean value and a standard deviation of values obtained from eight wells of the different cultured cells. *p<0.001, comparison with the control (gray bar). 1-way ANOVA, Tukey-Kramer post-test.\nas §4, with “The” for “In the drawing, the”, “PC-3” for “PC-3 (FIGS. 5(A) and 5(B)) and DU-145 (FIGS. 5(D) and 5(E))”, “gemcitabine (1,” for “DHMBA (0.01, 0.1, 1,”, “10, 50,” for “10,”, “250 nM),” for “1000 μM),”, “for” for “for 24 and”\nAfter the culture for three days, when the cells reached sub-confluence, the culture fluid was exchanged for a culture fluid containing the DHMBA (1 or 10 μM) and gemcitabine (1, 10, or 100 nM), and the cells were counted after the culture for 48 hours. […]"}, "DU-145 cells": {"system": "DU-145 cells", "assay": "Cell growth of DU-145 cells (cell counting)", "conditions": "three days, roscovitine 10 or 100 nM, butyrate 10 or 100 μM, sulforaphane 1 or 10 nM", "experimental": "as §1, §2\nFIG. 2(C) is a diagram in which the DU-145 cells (1×10^5 cells/per well of a 24-well plate) were cultured under 5% of CO2, at 37° C., for one to six days in a DMEM culture fluid (containing 10% of FBS, 1% of P/S, and 1% of fungizone) containing the DHMBA (10 μM).\nas §3, with “2(D)” for “1(D)”, “2(E),” for “1(E),”, “DU-145” for “PC-3”, “2D)” for “1D)”, “2E)” for “1E)”, “the” for “the bottom surface of the”"}}, "data": [{"molecule": "Cc1ccccc1N=Nc1ccc(NC(=O)c2ccnn2C)c(C)c1", "note": "[CH223191, 2-Methyl-2H-pyrazole-3-carboxylic acid (2-methyl-4-o-tolylazo-phenyl)-amide, reference compound]", "values": [{"measurement": "action of CH223191 alone on cell growth", "setting": "PC-3 cells [1]; CH223191 1, 10, or 25 μM", "value": "no significant effect"}, {"measurement": "cell death induction by CH223191 alone", "setting": "PC-3 cells [2]; sub-confluent, CH223191 1, 10, or 25 μM, 48 hours", "value": "did not cause the cell death induction"}]}, {"molecule": "COc1cccc(-c2cc(=O)c3ccccc3o2)c1N", "note": "[PD98059, reference compound]", "values": [{"measurement": "cell growth in the presence of intracellular signaling inhibitor alone", "setting": "PC-3 cells [1]; wortmannin 10 or 100 nM, PD98059 1 or 10 μM, staurosporine 1 or 10 nM", "value": "inhibited"}]}, {"molecule": "Nc1ccn([C@@H]2O[C@H](CO)[C@@H](O)C2(F)F)c(=O)n1", "note": "[gemcitabine, reference compound]", "values": [{"measurement": "cell death by gemcitabine alone", "setting": "PC-3 cells [2]; gemcitabine 1, 10, 50, 100, and 250 nM, three days as printed", "value": "significant cell deaths"}]}, {"molecule": "CC[C@H](CO)Nc1nc(NCc2ccccc2)c2ncn(C(C)C)c2n1", "note": "[roscovitine, reference compound]", "values": [{"measurement": "cell growth in the presence of cell cycle inhibitor alone", "setting": "PC-3 cells [1]", "value": "inhibited"}, {"measurement": "cell growth in the presence of cell cycle inhibitor alone", "setting": "DU-145 cells", "value": "inhibited"}]}, {"molecule": "C[S+]([O-])CCCCN=C=S", "note": "(centres unmarked) [sulforaphane, reference compound]", "values": [{"measurement": "cell growth in the presence of cell cycle inhibitor alone", "setting": "PC-3 cells [1]", "value": "inhibited"}, {"measurement": "cell growth in the presence of cell cycle inhibitor alone", "setting": "DU-145 cells", "value": "inhibited"}]}]}
